Experimental data reported in patent US9427433B2, “Methods and compositions for enhancing fertility and/or inhibiting pregnancy failure and restoring glucose tolerance” (Queen's University at Kingston, priority 2011, dated 2016).

Legend:
[1] = system: high fat fed female NZO mice; experiment: Ovarian histology of macrolide-treated chronically high fat fed NZO mice; format: in vivo, mouse; settings: chronically high fat diet fed NZO mice
Protocol: Statistical differences between groups were measured by two-way analysis of variance (ANOVA) followed by Bonferroni post-hock t-test comparing effect of all tested macrolides on mean follicular structure counts/unit area at 95% confidence. Scale bars=200 μm for B, D, F, G, H, I, J and 50 μm for A, C, E. N=10 (HFD-NZO), 6 per treatment group. A, C and E are higher magnifications of B, D and F respectively. * denoting ovarian cyst(s).
(§1) For the comparative evaluation of other macrolide drugs to tacrolimus, mice starting at 7 weeks of age were maintained on the high fat diet for a total of 13 weeks of study period. Mice were entered into the experiments when determined to be glucose intolerant as described above. Methods of drug administration and other experimental methods were as described above.

[2] = system: NZO mice fed a high fat diet; experiment: Implantation rate and resorption, comparison of macrolides; format: in vivo, mouse
Protocol: as §1
Peri-implantation (E4.5) and post-implantation (E6.5) pregnant and/or pseudopregnant (E4.5bid and E6.5bid) mouse uteri were prepared after mating respectively with fertile and/or vasectomized males as previously described (Herington et al. Endocrinol 2009 150: 4404-4413). The morning of vaginal plug detection was considered as gestational day 0.5 (E0.5 or Gd.0.5). An average number of twenty Concanavalin A(ConA)-coated sepharose beads (average size of 0.1 mm-diameter) (Sigma-Aldrich, Burlington, Ontario, Canada) was injected into the lumen of the left uterine horn of anesthetized animals between hours 13:00 and 16:00 on day 2.5 of pseudopregnancy according to the procedure described by Herington et al. (Endocrinol, 2009 150: 4404-4413). With the use of Ketamine/Xyalzine anesthesia and cardiac puncture, all animals were sacrificed at the age of 16-18 weeks between the morning hours 09:00-11:00. Pregnant and pseudopregnant mice were sacrificed in the morning of days 4.5 and 6.5 of their respective pregnancy. Blood samples were collected from all animals and were let stand for 1 hour at room temperature before isolation of the serum. Serum samples were stored at −80° C. until they were analyzed for their steroid hormones and lipid contents by appropriate laboratory procedures such as radio-immunoassay (RIA) all of which were conducted at the Department of Clinical Chemistry (Kingston General Hospital, Kingston, Ontario, Canada). Ovaries, oviducts and uteri were carefully dissected out of carcasses and were placed in ice-cold phosphate buffered saline (PBS)-containing petri dishes. Under a dissecting microscope, uteri were carefully isolated from their attached uterine tubes, trimmed of all mesenteric fat and were immediately weighed. The numbers of corpora lutea and implantation sites (viable and resorbed) were counted, respectively, from E4.5 and E6.5 pregnant mouse ovaries and uteri. For protein and RNA extraction, virgin uteri and segments of uterine horns containing inter-implantation sites of pregnant and pseudopregnant uteri were transected and snapped frozen in liquid nitrogen.
Examination of external morphological features of uteri of pregnant mice, including counts of implantation sites and photography was performed using a computerized dissecting microscope (Leica Diagnostic Instruments, USA) and the image acquisition and analytic software (SPOT 2.2.0). Percentage of peri-implantation embryo loss was calculated as described by Bindali and Kaliwal (Ind. Health, 2002 40:191-197), using the formula: % Preimplantation loss=[Total number of corpora lutea−Total number of implantation]/Total number of corpora lutea. Immunohistochemical localization and assessment of microscopic morphological features of implantation and inter-implantation sites in normoglycemic and diabetic NOD mice were performed on methacarn (60% methanol, 30% chloroform and 10% acetic acid)-fixed specimens. […]

[3] = humans, single oral dose of 0.5 mg; cited from earlier work

For C=CC[C@@H]1/C=C(\C)C[C@H](C)C[C@H](OC)[C@H]2O[C@@](O)(C(=O)C(=O)N3CCCC[C@H]3C(=O)O[C@H](/C(C)=C/[C@@H]3CC[C@@H](O)[C@H](OC)C3)[C@H](C)[C@@H](O)CC1=O)[C@H](C)C[C@@H]2OC [tacrolimus], the “follicular growth pattern in the ovaries” value [1] was “restored follicular growth pattern”, the ovarian cyst formation ([1]; p<0.001) was “inhibited the development of ovarian cysts” and the ovarian follicular atresia ([1]; vs untreated HFD-NZO) was “significantly inhibited ovarian follicular atresia (p<0.01)”. For the same molecule, the “fertility-enhancing effect compared with the other macrolides” value ([2]; NZO mice, high fat diet) was “greater comparative effects”, the “embryonic and fetal absorption rate” value ([2]; same treatments, vs vehicle, p<0.05) was “significantly reduced embryonic and fetal absorption rate” and the implantation rate ([2]; tacrolimus 0.05 and 0.1 mg/kg, pimecrolimus 0.1 mg/kg, sirolimus 0.1 mg/kg s.c. every other day for three weeks, vs vehicle) was “significantly improved implantation rate (p<0.05)”. For the same molecule, the maximal blood concentration [3] was 4.6 ng/mL.
